Measurements: paper PMC6265452, “An auxin controls bacterial antibiotics production” (Nucleic Acids Research, 2018)
Where two headings read alike, the source gives them in different places.

Experiments:
[1] = target: T1, AdmX (Serratia plymuthica, UniProt P0DV33); assay: ITC (also DSF shift of […]°C, in vitro transcription repression); type: binding
[2] = target: T1, AdmX; assay: as above; type: binding; remark: listed apart in the source

T1 sequence (P0DV33 whole entry): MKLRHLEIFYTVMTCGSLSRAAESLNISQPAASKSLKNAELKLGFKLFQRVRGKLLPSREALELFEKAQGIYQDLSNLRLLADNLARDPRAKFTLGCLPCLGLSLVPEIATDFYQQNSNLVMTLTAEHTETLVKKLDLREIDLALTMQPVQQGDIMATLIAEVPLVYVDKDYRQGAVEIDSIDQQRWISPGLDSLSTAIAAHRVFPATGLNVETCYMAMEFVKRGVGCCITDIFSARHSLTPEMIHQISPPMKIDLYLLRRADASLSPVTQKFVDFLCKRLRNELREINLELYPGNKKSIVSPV

## O=C(O)Cc1c[nH]c2ccccc12 [IAA, indole-3-acetic acid]
[1]
  Kd: 60.9 µM

## O=C(O)C(=O)Cc1c[nH]c2ccccc12 [IPA, indole-3-pyruvic acid]
[2]
  Kd: 1.1 µM
